Assay [1] addresses RPSA-(2–209) W176A (Mus musculus, UniProt P14206, W176A). Nature of the assay: Fluorimetric titration of mutant RPSA-. It counts as binding, murine.
Assay [2] addresses RPSA-(2–209) W195A (Mus musculus, UniProt P14206, W195A). Nature of the assay: Fluorimetric titration of mutant RPSA-. The class given is binding, murine.
Assay [3] addresses T1, RPSA-(225–295) (Mus musculus, UniProt P14206). Put plainly: Fluorimetric titration of RPSA derivative with EGCG. The class given is binding, murine. The conditions noted are these: 25°C.
The target in assay [4] is N-domain of RPSA (Mus musculus, UniProt P14206). Put plainly: Summary of ligand binding functions of RPSA domains. The following applies: read-out: KD (dissociation constants), N-domain; rounded value of the Abstract. Details: species or system murine.
For assay [5], the target named is T2, RPSA-(2–295) (Mus musculus, UniProt P14206). Nature of the assay: Fluorimetric titration of RPSA derivative with EGCG. It counts as binding, murine.
Assay [6] concerns 67LR form of RPSA, purified from human cancer cells. The following applies: 25°C, surface plasmon resonance; cited from earlier work. In general terms: SPR reads the build-up and loss of mass on a sensor chip optically.
In assay [7] the target is T3, RPSA-(210–295) (Mus musculus, UniProt P14206). Nature of the assay: Fluorimetric titration of RPSA derivative with EGCG. The class given is binding, murine. The following applies: 25°C.
Assay [8] addresses T4, RPSA-(2–220) (Mus musculus, UniProt P14206). The description is as above. It counts as binding, murine. The conditions noted are these: read-out: KD(EGCG); 25°C, PBS, equilibrium in solution, spectrofluorimetry.
Assay [9] addresses T5, RPSA-(2–209) (Mus musculus, UniProt P14206). Described as above. It counts as binding, murine.
Assay [10] deals with C-domain of RPSA (Mus musculus, UniProt P14206). Put plainly: Summary of ligand binding functions of RPSA domains. The following applies: read-out: KD (dissociation constants), C-domain; rounded value of the Abstract. Also on record: species or system murine.
The target of assay [11] is T4, RPSA-(2–220). Put plainly: Competition ELISA, KD between laminin and RPSA derivative. The class given is binding, murine. The following applies: read-out: KD(Laminin), 25°C, buffer C, equilibrium in solution. Background: ELISA stands for enzyme-linked immunosorbent assay.
The target in assay [12] is RPSA 1–220. The conditions noted are these: 1–220, E. coli, native, Ind. ELISA, 37 °C; cited from earlier work.
Assay [13] addresses RPSA 161–180 (synthetic peptide G). The conditions noted are these: SPRadio-L, 4 °C; cited from earlier work.
In assay [14] the target is T5, RPSA-(2–209). Put plainly: Competition ELISA, KD between laminin and RPSA derivative. The class given is binding, murine. The following applies: read-out: KD(Laminin), 25°C, buffer C, equilibrium in solution.
Assay [15] has as its target T1, RPSA-(225–295). The description is as above. It counts as binding, murine. The following applies: read-out: KD(Laminin), 25°C, buffer C, equilibrium in solution.
The target of assay [16] is T3, RPSA-(210–295). The assay is described as above. The class given is binding, murine. The following applies: read-out: KD(Laminin), 25°C, buffer C, equilibrium in solution.
Assay [17] has as its target 67LR. The following applies: cell membrane, denatured, SPRadio-L, cited from earlier work.
In assay [18] the target is RPSA 1–295. The conditions noted are these: 1–295, E. coli, native, Ind. ELISA, 37 °C; cited from earlier work.
Assay [19] addresses T2, RPSA-(2–295). Nature of the assay: Competition ELISA, KD between laminin and RPSA derivative. The class given is binding, murine.
For assay [20], the target named is interaction between RPSA-(225–295) and laminin (Mus musculus, UniProt P02468+P02469+P19137). Put plainly: Competition ELISA, inhibition constant Ki of heparin. The following applies: read-out: constant of inhibition (Ki); 25°C, buffer C, laminin 5 μg/ml, immobilized RPSA-(225–295). It counts as binding, murine.
Assay [21] addresses T5, RPSA-(2–209). Nature of the assay: Indirect ELISA, capture of heparin by immobilized RPSA derivative. It counts as binding, murine. The conditions noted are these: 25°C, half-saturation.
In assay [22] the target is capture of laminin by immobilized RPSA-(2–220) (Mus musculus, UniProt P14206). The class given is binding, murine. The following applies: EC50 smaller than K1/2.
Assay [23] addresses T3, RPSA-(210–295). Put plainly: Indirect ELISA, capture of heparin by immobilized RPSA derivative. It counts as binding, murine. The conditions noted are these: 25°C.
In assay [24] the target is T1, RPSA-(225–295). Described as above. The class given is binding, murine. The following applies: 25°C.
Assay [25] concerns the target T2, RPSA-(2–295). The description is as above. It counts as binding, murine. The conditions noted are these: 25°C.
Assay [26] has as its target T4, RPSA-(2–220). The description is as above. It counts as binding, murine. The following applies: 25°C, half-saturation, listed as Heparin.
Where [27] appears, read: uncorrected fluorescence, consistent with tryptophanamide control.
The mark [28] stands for this setting: read-out: KD(EGCG), 25°C, PBS, equilibrium in solution, spectrofluorimetry.

We go through 3 molecules from publication PMC4098866 (Bioscience Reports, 2012).

“And” between values parts separate entries of the source, which are not always exact repeats. Identical values can stand only once. Like-named read-outs stand apart in the source and are kept apart here.

As a reminder, the Kd is the equilibrium constant for the complex coming apart. As for `O=C(O[C@@H]1Cc2c(O)cc(O)cc2O[C@@H]1c1cc(O)c(O)c(O)c1)c1cc(O)c(O)c(O)c1` [EGCG, (−)-epigallocatechin-3-gallate], the “decrease of free energy of interaction (ΔΔG) with EGCG” value in assay [1] (W176A vs parental RPSA-(2–209)) and in [2] (W195A vs parental RPSA-(2–209)) was 0.4 ± 0.1 kcal/mol each time. Also, the equilibrium dissociation constant (Kd) in assay [1] (read-out: KD (EGCG), 25°C, W176A mutant of RPSA-(2–209)) amounted to 186 ± 42 nM; in assay [2] (read-out: KD (EGCG), 25°C, W195A mutant of RPSA-(2–209)), 196 ± 54 nM; in assay [4], 100 nM; in [5] (setting [28]), 399 ± 101 nM; in [8], 130 ± 37 nM; in assay [9] (setting [28]), 99 ± 7 nM. Moreover, the “EGCG binding (in words)” value in [3] (spectrofluorimetry) and in assay [7] (spectrofluorimetry) was “did not bind” in each case. For the same molecule, the “[EGCG]1/2 (concentration of half-absorption, Beer's law fitted to F)” value in assay [3] (setting [27]) came out at 43 µM; in assay [7] (setting [27]), 48 µM. Further, the “KD of EGCG, full-length RPSA-(2–295) relative to N-domain” value in assay [5] (higher for full-length) was 4 fold. Also, in assay [6], the “KD (EGCG and 67LR), ratio kd/ka” value is reported as 39.9 nM. In assay [9] (higher than 39.9 nM of ref 46), the “KD of EGCG with RPSA-(2–209) relative to literature KD with 67LR” value is given as 2.5 fold.

“laminin: laminin from mouse EHS (Engelbreth-Holm-Swarm) sarcoma, component of the extracellular matrix”: the Kd in assay [10] is 300 nM; in assay [11], 691 ± 98 nM; in assay [12], 1700 nM; in [4], 300 nM; in assay [13] it was 52 nM; in assay [14], 273 ± 37 nM. The Kd is 344 ± 50 nM in assay [15]; 374 ± 54 nM in assay [16]; 2 nM in assay [17] (4 °C); 2 nM in assay [17] (20 °C); 700 nM in assay [18]; 666 ± 33 nM in assay [19] (read-out: KD(Laminin), 25°C, buffer C, equilibrium in solution, competition ELISA). The “KD of laminin, full-length RPSA-(2–295) relative to N- or C-domain” value in assay [19] (higher for full-length) is listed as 2 fold.

For orientation: Ki means the equilibrium dissociation constant of an inhibitor or competing ligand from its target. On to heparin sodium salt, for which the Ki in assay [20] was determined as 16.1 ± 0.7 nM. The “K1/2(Heparin)” value is 1.43 µM in assay [21]; 1.43 ± 0.06 µM in [21] (listed as Heparin); “≫2 μM” in [23] (half-saturation); “≫2 μM” in assay [24] (half-saturation); “≫4 μM” in [25] (half-saturation); 4.4 µM and 4.36 ± 0.28 µM in [26]. For the same molecule, in assay [22], the “EC50 relative to K1/2 of heparin for RPSA-(2–220)” value is given as 130 fold. In addition, the “heparin binding (in words)” value in assay [23], in assay [24] and in assay [25] was “did not bind” in each case.
